Values of other authors as cited in patent US8652545B2, “Composition of a liquid dietary supplement to treat symptoms of autism spectrum disorders in children” (Reverta Health Solutions LLC, priority 2008, dated 2014).

Legend:
[1] = in vivo
[2] = in vivo; remark: listed apart in the source
[3] = test system: individuals diagnosed with autism; conditions: high doses, given with magnesium; Nye and Brice (2005)

crossing of the blood-brain barrier [1] | Structure (SMILES) | sleep [2] | stress [2] | benefit in individuals diagnosed with autism [3]
easily crosses the blood-brain barrier | CCNC(=O)CC[C@H](N)C(=O)O [Theanine] | promote a more restful deep sleep | reduce stress | –
– | Cc1ncc(CO)c(CO)c1O.Cl [vitamin B6, Vitamin B6] | – | – | extremely beneficial
